Key:
Experiment in all cases: relative viability (nuclei count vs DMSO), 5 days (fraction); higher = more cells survive
SGI-1776 + Palbociclib = compound: CN1CCC(CNc2ccc3ncc(-c4cccc(OC(F)(F)F)c4)n3n2)CC1 [SGI-1776] + CC(=O)c1c(C)c2cnc(Nc3ccc(N4CCNCC4)cn3)nc2n(C2CCCC2)c1=O [Palbociclib] (partner 0.5 µM)
In short: (§1)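 One day after seeding in 1536-well plates, lung cancer cell lines were dosed by pin tool. Dosing was either single-drug or a fixed anchor-drug dose plus five library-drug doses (not always all listed) in √10 steps. After 5 days, nuclei were stained in one fix-and-stain step and counted on 4× images, and relative viability is the nuclei count of treated wells over that of vehicle wells, given as the median of duplicate plates.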

[1] = compound: C1COCCN1C2=NC(=NC3=C2OC4=C3C=CC=N4)C5=CC(=CC=C5)NC(=O)C6=CN=C(C=C6)N + C[C@@H](Oc1cc(-c2cnn(C3CCNCC3)c2)cnc1N)c1c(Cl)ccc(F)c1Cl [Crizotinib] (partner 1 µM)
In short: as §1

Entinostat + Vorinostat = compound: Nc1ccccc1NC(=O)c1ccc(CNC(=O)OCc2cccnc2)cc1 [Entinostat] + O=C(CCCCCCC(=O)Nc1ccccc1)NO [Vorinostat] (partner 1 µM)
In short: as §1

Cell Line: NCI-H3122
- relative viability (SGI-1776 + Palbociclib; first compound 0.08 µM): 0.206
- relative viability (SGI-1776 + Palbociclib; first compound 0.8 µM): 0.2
- relative viability (SGI-1776 + Palbociclib; first compound 2.53 µM): 0.173
- relative viability (SGI-1776 + Palbociclib; first compound 8 µM): 0.165
- relative viability ([1]; first compound 0.02 µM): 0.312
- relative viability ([1]; first compound 0.06325 µM): 0.236
- relative viability ([1]; first compound 0.2 µM): 0.242
- relative viability ([1]; first compound 0.6325 µM): 0.271
- relative viability ([1]; first compound 2 µM): 0.24
- relative viability (Entinostat + Vorinostat; first compound 0.02 µM): 1.09
- relative viability (Entinostat + Vorinostat; first compound 0.06325 µM): 0.904
- relative viability (Entinostat + Vorinostat; first compound 0.2 µM): 0.979
- relative viability (Entinostat + Vorinostat; first compound 0.6325 µM): 0.634
- relative viability (Entinostat + Vorinostat; first compound 2 µM): 0.255

Cell Line: NCI-H2126
- relative viability (SGI-1776 + Palbociclib; first compound 0.08 µM): 0.389
- relative viability (SGI-1776 + Palbociclib; first compound 0.8 µM): 0.334
- relative viability (SGI-1776 + Palbociclib; first compound 2.53 µM): 0.361
- relative viability (SGI-1776 + Palbociclib; first compound 8 µM): 0.331
- relative viability ([1]; first compound 0.02 µM): 1.04
- relative viability ([1]; first compound 0.06325 µM): 1.09
- relative viability ([1]; first compound 0.2 µM): 1.06
- relative viability ([1]; first compound 0.6325 µM): 1
- relative viability ([1]; first compound 2 µM): 0.645
- relative viability (Entinostat + Vorinostat; first compound 0.02 µM): 0.74
- relative viability (Entinostat + Vorinostat; first compound 0.06325 µM): 0.883
- relative viability (Entinostat + Vorinostat; first compound 0.2 µM): 0.733
- relative viability (Entinostat + Vorinostat; first compound 0.6325 µM): 0.314
- relative viability (Entinostat + Vorinostat; first compound 2 µM): 0.317

Cell Line: NCI-H520
- relative viability (SGI-1776 + Palbociclib; first compound 0.08 µM): 0.267
- relative viability (SGI-1776 + Palbociclib; first compound 0.8 µM): 0.219
- relative viability (SGI-1776 + Palbociclib; first compound 2.53 µM): 0.191
- relative viability (SGI-1776 + Palbociclib; first compound 8 µM): 0.16
- relative viability ([1]; first compound 0.02 µM): 0.925
- relative viability ([1]; first compound 0.06325 µM): 0.775
- relative viability ([1]; first compound 0.2 µM): 0.803
- relative viability ([1]; first compound 0.6325 µM): 0.756
- relative viability ([1]; first compound 2 µM): 0.443
- relative viability (Entinostat + Vorinostat; first compound 0.02 µM): 0.634
- relative viability (Entinostat + Vorinostat; first compound 0.06325 µM): 0.732
- relative viability (Entinostat + Vorinostat; first compound 0.2 µM): 0.764
- relative viability (Entinostat + Vorinostat; first compound 0.6325 µM): 0.491
- relative viability (Entinostat + Vorinostat; first compound 2 µM): 0.306

Cell Line: LU99A
- relative viability (SGI-1776 + Palbociclib; first compound 0.08 µM): 0.415
- relative viability (SGI-1776 + Palbociclib; first compound 0.8 µM): 0.441
- relative viability (SGI-1776 + Palbociclib; first compound 2.53 µM): 0.407
- relative viability (SGI-1776 + Palbociclib; first compound 8 µM): 0.381
- relative viability ([1]; first compound 0.02 µM): 0.602
- relative viability ([1]; first compound 0.06325 µM): 0.65
- relative viability ([1]; first compound 0.2 µM): 0.477
- relative viability ([1]; first compound 0.6325 µM): 0.49
- relative viability ([1]; first compound 2 µM): 0.327
- relative viability (Entinostat + Vorinostat; first compound 0.02 µM): 0.521
- relative viability (Entinostat + Vorinostat; first compound 0.06325 µM): 0.499
- relative viability (Entinostat + Vorinostat; first compound 0.2 µM): 0.503
- relative viability (Entinostat + Vorinostat; first compound 0.6325 µM): 0.388
- relative viability (Entinostat + Vorinostat; first compound 2 µM): 0.326

Cell Line: NCI-H1666
- relative viability (SGI-1776 + Palbociclib; first compound 0.08 µM): 0.64
- relative viability (SGI-1776 + Palbociclib; first compound 0.8 µM): 0.66
- relative viability (SGI-1776 + Palbociclib; first compound 2.53 µM): 0.614
- relative viability (SGI-1776 + Palbociclib; first compound 8 µM): 0.663
- relative viability ([1]; first compound 0.02 µM): 0.743
- relative viability ([1]; first compound 0.06325 µM): 1.08
- relative viability ([1]; first compound 0.2 µM): 0.82
- relative viability ([1]; first compound 0.6325 µM): 1.03
- relative viability ([1]; first compound 2 µM): 0.619
- relative viability (Entinostat + Vorinostat; first compound 0.02 µM): 1.05
- relative viability (Entinostat + Vorinostat; first compound 0.06325 µM): 0.979
- relative viability (Entinostat + Vorinostat; first compound 0.2 µM): 0.934
- relative viability (Entinostat + Vorinostat; first compound 0.6325 µM): 0.835
- relative viability (Entinostat + Vorinostat; first compound 2 µM): 0.601

Cell Line: NCI-H460
- relative viability (SGI-1776 + Palbociclib; first compound 0.08 µM): 0.243
- relative viability (SGI-1776 + Palbociclib; first compound 0.8 µM): 0.133
- relative viability (SGI-1776 + Palbociclib; first compound 2.53 µM): 0.121
- relative viability (SGI-1776 + Palbociclib; first compound 8 µM): 0.151
- relative viability ([1]; first compound 0.02 µM): 1.16
- relative viability ([1]; first compound 0.06325 µM): 1.03
- relative viability ([1]; first compound 0.2 µM): 0.913
- relative viability ([1]; first compound 0.6325 µM): 0.927
- relative viability ([1]; first compound 2 µM): 0.144
- relative viability (Entinostat + Vorinostat; first compound 0.02 µM): 0.751
- relative viability (Entinostat + Vorinostat; first compound 0.06325 µM): 0.567
- relative viability (Entinostat + Vorinostat; first compound 0.2 µM): 0.245
- relative viability (Entinostat + Vorinostat; first compound 0.6325 µM): 0.052
- relative viability (Entinostat + Vorinostat; first compound 2 µM): 0.0296
